Experimental data published in patent US20030143559A1, “Novel estrogen receptor ligand binding domain variants and novel ligands and pharmaceutical compositions” (priority 2001, published 2003).
Changes are numbered by the printed parent chain. Several values for one entry are separate records, joined by “and”; a condition that tells them apart may be missing. Equal entries are not always repeated.

Key:
Av3-421/428 = biological target: T1, Av3-421/428 (Homo sapiens, UniProt P03372, L428A/M421V); test: Transactivation on adenoviral (Av3)-delivered ER variant, luciferase in HeLa cells
T1 sequence (P03372 258-554 M421V/L428A): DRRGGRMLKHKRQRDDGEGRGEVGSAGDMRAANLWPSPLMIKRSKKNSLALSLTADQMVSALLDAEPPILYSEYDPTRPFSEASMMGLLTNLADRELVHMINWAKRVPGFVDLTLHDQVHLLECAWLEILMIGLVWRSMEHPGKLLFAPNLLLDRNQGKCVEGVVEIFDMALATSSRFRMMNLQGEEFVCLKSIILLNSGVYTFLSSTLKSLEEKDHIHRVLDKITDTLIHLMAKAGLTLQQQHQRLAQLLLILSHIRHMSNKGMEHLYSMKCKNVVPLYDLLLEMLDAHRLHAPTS
Description: For example, the ER LBD mutants of the present invention were constructed into a replication defective adenoviral vector (Av3) backbone DNA sequence so that this regulatory system could be delivered into cells for clinical application and testing. An Av3 vector containing a series of C7 binding sites linked to an SV40 minimal promoter and luciferase transgene (C7-SV40-luc) was also constructed and delivered simultaneously with each of the Av3 ER LBD mutant vectors. The cells were then exposed to the corresponding ligand to test the capability of the adenoviral-delivered ER mutants to respond to their corresponding ligands and then mediate the transcription of the luciferase transgene in the context of an adenoviral vector. […] Xu et al., Molecular Therapy, 3:262-273, 2000.

wild-type ER = biological target: T2, wild-type ER (Homo sapiens, UniProt P03372); test: Inhibition of E2 activity on wild-type ER, COS-7 cells with pHEGO and ERE luciferase reporter; type: cell-based; conditions: IC50 ± STDEV, pHEGO and pERETkLuc, E2 (3 nM) + 0.1 to 1000 nM compound
T2 construct: expressed in transfected cells; host or cells: COS-7
T2 sequence (P03372 1-595): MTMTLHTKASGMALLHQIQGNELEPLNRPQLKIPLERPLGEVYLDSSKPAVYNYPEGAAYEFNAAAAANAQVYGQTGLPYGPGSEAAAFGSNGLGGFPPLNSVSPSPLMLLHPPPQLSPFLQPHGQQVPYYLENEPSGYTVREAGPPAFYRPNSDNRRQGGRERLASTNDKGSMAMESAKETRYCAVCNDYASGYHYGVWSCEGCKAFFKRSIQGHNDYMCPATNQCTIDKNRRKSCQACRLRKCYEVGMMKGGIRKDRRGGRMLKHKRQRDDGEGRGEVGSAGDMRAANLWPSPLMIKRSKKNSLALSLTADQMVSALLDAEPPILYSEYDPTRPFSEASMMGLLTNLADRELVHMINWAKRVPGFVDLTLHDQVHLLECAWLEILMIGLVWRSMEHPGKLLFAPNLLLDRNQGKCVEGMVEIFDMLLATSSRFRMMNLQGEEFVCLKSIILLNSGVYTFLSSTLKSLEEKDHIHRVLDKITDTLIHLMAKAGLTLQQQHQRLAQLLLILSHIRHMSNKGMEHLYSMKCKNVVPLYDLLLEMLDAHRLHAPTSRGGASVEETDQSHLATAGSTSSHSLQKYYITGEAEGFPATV
Protocol: For transfection, 0.5 microgram of pERE2tkluc reporter plasmid, 20 ng of pHEGO, and 0.5 microgram of pCIneo inert carrier DNA were combined with 60 microliter serum-free DMEM and 5 microliter Qiagen Superfect transfection reagent, vortexed for 10s, and set at room temperature for 10 min. Each sample was diluted with 350 microliters of steroid-free media, mixed, and added to each well. Following 2 hr 30 min incubation at 37° C., cells were washed once with Dulbecco's phosphate buffered saline (DPBS), and refed with steroid-free media. […] Approximately 24 hr after treatment, cells were washed once with DPBS, then 200 microliter of reporter lysis buffer was added per well and frozen at −80° C. Cells were thawed at room temperature on an orbital shaker for 1 hr 30 min. A 10 microliter aliquot of lysate was transferred to 96 well opaque plates, and relative luciferase units (RLU) determined on a luminometer using the appropriate firefly luciferase substrate.
Note that the nonspecific activity is a noncompetable element in the assay system.
In order to dissolve them completely, all the solutions were warmed in 55° C. or boiled water bath for 10 to 20 min before use. The DMSO in cell culture medium was maintained to 0.01% for all the drug concentration tested as well as the vehicle control.

ER-LBD 421V/428A = biological target: T3, ER-LBD 421V/428A (Homo sapiens, UniProt P03372, L428A/M421V); test: ER-LBD 421V/428A transactivation, cotransfection luciferase reporter assay in HeLa cells; type: cell-based; conditions: p6x2C7Luc reporter, 0.003 to 1000 nM, mean of two or more experiments, read-out: EC50 ± STDEV
T3 construct: expressed in transfected cells; host or cells: HeLa
T3 sequence (P03372 311-547 M421V/L428A): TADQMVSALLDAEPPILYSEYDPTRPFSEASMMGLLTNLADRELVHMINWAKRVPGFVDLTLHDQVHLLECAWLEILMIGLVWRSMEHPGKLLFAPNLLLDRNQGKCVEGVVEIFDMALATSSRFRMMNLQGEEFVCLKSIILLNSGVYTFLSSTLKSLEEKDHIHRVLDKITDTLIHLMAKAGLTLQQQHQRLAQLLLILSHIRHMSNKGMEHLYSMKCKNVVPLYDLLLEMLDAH
Protocol: (§1) In order to evaluate the ability of the fusion proteins C7LBD A, B, and the related LBD mutants to regulate transgene expression, a standard co-transfection reporter assay was performed. A reporter construct, henceforth known as 6×2C7pGL3Luc, containing six copies of a directly repeated C7 binding site (6×2C7) inserted upstream of an SV40 promoter fragment and reporter gene encoding firefly luciferase (pGL3Pro; Promega) was transfected along with the designated fusion protein and assayed as described below. Note the consensus C7 binding site is 5′-GCG TGG GCG-3′.
(§2) Cultured cells (HeLa, Cos, Hep3B or other) were seeded at 5×10^4 cells/well in a 24 well plate prior to the day of transfection in DMEM Phenol-free media, supplemented with L-glutamine and 5% (v/v) charcoal-dextran stripped Fetal Bovine serum (sFBS). Cells were transfected using the Qiagen Superfect Transfection method. For each well 1 μg of total DNA, containing 0.5 μg luciferase reporter plasmid (6×2C7pGL3Luc), 0.1 μg of chimeric activator DNA (e.g., C7LBDA, C7LBDB, or mutants thereof ), and 0.4 μg of an inert carrier plasmid DNA (p3Kpn), was mixed with 60 μL of DMEM phenol-free/serum free media, and 5 μL of Superfect reagent. In general, about 10 ng to about 0.5 μg of chimeric activator DNA was used for each well. […]

[1] = biological target: T4, 388V-424Y-428A transcription factor system (Homo sapiens, UniProt P03372, I424Y/L428A/M388V); test: In vivo regulation of endostatin transgene, gutless vectors, serum endostatin ELISA; design: species or system C57BL/6 mice; conditions: 50 ug/animal IP; for Endostatin Levels: vectors 5×10^10 particles/mouse each, n = 3
T4 construct: fragment B=ER amino acids 258-554; expressed in transfected cells; host or cells: HeLa cells transduced with Av3 or gutless adenoviral vector
T4 sequence (P03372 258-554 M388V/I424Y/L428A): T1 sequence (P03372 258-554 M421V/L428A) with M131V, V164M, I167Y
Protocol: To address this issue of sustained induction, a second in vivo study was performed.

Av3-388V/424Y/428A = biological target: T5, Av3-388V/424Y/428A (Homo sapiens, UniProt P03372, I424Y/L428A/M388V); test: Transactivation on adenoviral (Av3)-delivered ER variant, luciferase in HeLa cells; type: cell-based; conditions: 100 nM test compound, 24 hrs (FIG. 5)
T5 construct: fragment B=ER amino acids 258-554; expressed in transfected cells; host or cells: HeLa cells transduced with Av3 or gutless adenoviral vector
T5 sequence (P03372 258-554 M388V/I424Y/L428A): T1 sequence (P03372 258-554 M421V/L428A) with M131V, V164M, I167Y
Description: Xu et al., Molecular Therapy, 3:262-273, 2000.

[2] = biological target: T6, 388V-424Y-428A transcription factor (Homo sapiens, UniProt P03372, I424Y/L428A/M388V); test: In vitro inducible luciferase expression with gutless adenoviral transcription factor vector in Hela cells; type: cell-based
T6 construct: fragment B=ER amino acids 258-554; expressed in transfected cells; host or cells: HeLa cells transduced with Av3 or gutless adenoviral vector
T6 sequence (P03372 258-554 M388V/I424Y/L428A): T1 sequence (P03372 258-554 M421V/L428A) with M131V, V164M, I167Y

ER-LBD 388V/424Y/428A = biological target: T7, ER-LBD 388V/424Y/428A (Homo sapiens, UniProt P03372, I424Y/L428A/M388V); test: ER-LBD 388V/424Y/428A transactivation, cotransfection luciferase reporter assay in HeLa cells; type: cell-based
T7 construct: expressed in transfected cells; host or cells: HeLa
T7 sequence (P03372 311-547 M388V/I424Y/L428A): T3 sequence (P03372 311-547 M421V/L428A) with M78V, V111M, I114Y
Protocol: as §1, §2

| Compound | response relative to basal activity / fold induction (Av3-421/428; 100 nM test compound, 24 hrs (FIG. 5)) | fold induction at 0.1 µM (Av3-421/428; read-out: response relative to basal activity / fold induction) | IC50 (wild-type ER) [nM] | melting point [°C] | EC50 (ER-LBD 421V/428A) [nM] | endostatin expression, result in words [1] | Endostatin Levels ([1]; Day 1) [ng/mL] | Endostatin Levels ([1]; Day 3) [ng/mL] | Endostatin Levels ([1]; Day 7) [ng/mL] | luciferase activity over the basal level (Av3-388V/424Y/428A) [fold] | Fold Induction ([2]; 100 nM ligand vs without ligand) [fold] | Luciferase Expression Levels (Relative Light Units) ([2]; (+) induced with 100 nM ligand, mean +/− standard error (n = 4)) | EC50 (ER-LBD 388V/424Y/428A; HeLa cells cotransfected with pC7ERLBD 388V/424Y/428A and p6x2C7Luc, 0.1 to 1000 nM, mean of two or more experiments, read-out: EC50 ± STDEV) | sensitivity of mutant ER LBD 388V/424Y/428A to LBB 938 relative to estrogen (ER-LBD 388V/424Y/428A; ratio of EC50 values) |
| --- | --- | --- | --- | --- | --- | --- | --- | --- | --- | --- | --- | --- | --- | --- |
| COC(=O)NC/C(=C(\c1ccc(O)cc1)c1ccc(OCCN(C)C)cc1)c1ccccc1 [LBC081, Carbamic acid, [(2E)-3-[4-[2-(dimethylamino)ethoxy]phenyl]-3-(4-hydroxyphenyl)-2-phenyl-2-propenyl]-, methyl ester] | three | 3 | 845 | 161 to 162 | 11.7 |  |  |  |  |  |  |  |  |  |
| CN(C)CCOc1ccc(/C(=C(/CC2CC3CCC2C3)c2ccccc2)c2ccc(O)cc2)cc1 (stereo not drawn) [LBB938, 4-((1Z))-3-bicyclo[hept-2-yl-1-{4-[2-(dimethylamino)ethoxy]phenyl}-2-phenylprop-1-enyl)phenol] |  |  | 388 |  |  | induce endostatin expression | 6074 ± 3536 | 2332 ± 333 | 600 ± 72 | 19 | 90 | 3284939 +/− 116076 Relative Light Units | 28.4 nM and ~28 nM | approximately eight |
| COC(=O)NC/C(=C(/c1ccc(O)cc1)c1ccc(OCCN(C)C)cc1)c1ccccc1 [LBB551, Carbamic acid, [(2Z)-3-[4-[2-(dimethylamino)ethoxy]phenyl]-3-(4-hydroxyphenyl)-2-phenyl-2-propenyl]-, methyl ester] |  |  | 955 | 122 to 123 | 4.89 |  |  |  |  |  |  |  |  |  |
